From patent US9499550B2 (BRISTOL-MYERS SQUIBB COMPANY, priority 2012, dated 2016)
Like-named read-outs stand apart in the source and are kept apart here.

Key:
[1] = test system: HCV genotype 1a (H77 strain) replicon in HUH-7 cells; experiment: HCV replicon luciferase reporter assay, genotype 1a; assay type: cell-based; settings: Hepatitis C virus, Huh-7, 72 h, 3 days incubation, read-out: LE_1a (EC50, range)
Method in brief: (§1)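 Replicon inhibition for both genotypes was measured as Renilla luciferase signal (EnduRen, 7.5 μM final, 2 h) after 3-day, 37° C exposure of replicon-bearing HUH-7 cells in 4% FCS DMEM, 0.5% DMSO. The 1b construct carries S1179I; the 1a H77 construct carries P1496L and S2204I. Twenty-point, 3-fold dilutions were fitted four-parametrically for EC50, and CC50 was taken from multiplexed Cell Titer-Blue.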

[2] = test system: HCV genotype 1b (Con1) replicon in HUH-7 cells; experiment: HCV replicon luciferase reporter assay, genotype 1b; assay type: cell-based; settings: Hepatitis C virus, Huh-7, 72 h, 3 days incubation, read-out: LE_1b (EC50, range)
Method in brief: as §1

[3] = HCV genotype 1a replicon luciferase assay, range class
[4] = HCV genotype 1b replicon luciferase assay, range class
[5] = GETYPE1A, HCV genotype 1a replicon luciferase
[6] = GETYPE1B, HCV genotype 1b replicon luciferase
[7] = HCV genotype 1a replicon luciferase
[8] = HCV genotype 1b replicon luciferase

| Compound | EC50 [1, 7] [nM] | EC50 [2, 8] [nM] | other results |
| --- | --- | --- | --- |
| COCCn1nc(O[C@@H]2C[C@H]3C(=O)N[C@]4(C(=O)NS(=O)(=O)C5CC5)C[C@H]4/C=C\CC[C@@H](C)C[C@@H](C)[C@H](NC(=O)OC(C)(C)C(F)(F)F)C(=O)N3C2)c2ccccc2c1=O [Compound 1022, 1,1,1-trifluoro-2-methylpropan-2-yl((2R,6S,7R,9R,13aS,14aR,16aS,Z)-14a-((cyclopropylsulfonyl)carbamoyl)-2-((3-(2-methoxyethyl)-4-oxo-3,4-dihydrophthalazin-1-yl)oxy)-7,9-dimethyl-5,16-dioxo-1,2,3,5,6,7,8,9,10,11,13a,14,14a,15,16,16a-hexadecahydrocyclopropa[e]pyrrolo[1,2-a][1,4]diazacyclopentadecin-6-yl)carbamate] |  |  | EC50 [1, 3]: 4.82 to 103 nM; EC50 [2, 4]: 4.82 to 103 nM |
| CC[C@@H]1C[C@H](C)CC/C=C\[C@@H]2C[C@@]2(C(=O)NS(=O)(=O)C2(C)CC2)NC(=O)[C@@H]2C[C@@H](Oc3nc4cc(OC)ccc4nc3C(F)(F)F)CN2C(=O)[C@H]1NC(=O)OC(C)(C)C(F)(F)F [Compound 4244] |  |  | EC50 [1, 5]: 1.01 to 5 nM; EC50 [2, 6]: 1.01 to 5 nM |
| CCOc1cc2ccccc2c(O[C@@H]2C[C@H]3C(=O)N[C@]4(C(=O)NS(=O)(=O)C5(C)CC5)C[C@H]4/C=C\CC[C@@H](C)C[C@@H](C)[C@H](NC(=O)OC(C)(C)C(F)(F)F)C(=O)N3C2)n1 [Compound 6100, 1,1,1-trifluoro-2-methylpropan-2-yl((2R,6S,7R,9R,13aS,14aR,16aS,Z)-2-((3-ethoxyisoquinolin-1-yl)oxy)-7,9-dimethyl-14a-(((1-methylcyclopropyl)sulfonyl)carbamoyl)-5,16-dioxo-1,2,3,5,6,7,8,9,10,11,13a,14,14a,15,16,16a-hexadecahydrocyclopropa[e]pyrrolo[1,2-a][1,4]diazacyclopentadecin-6-yl)carbamate] | 1.01 to 5 | 0.1 to 0.5 |  |
| CC(C)Oc1ccc2c(O[C@@H]3C[C@H]4C(=O)N[C@]5(C(=O)NS(=O)(=O)C6CC6)C[C@H]5/C=C\CC[C@H](C)C[C@@H](C)[C@H](NC(=O)OC(C)(C)C)C(=O)N4C3)nccc2c1 [Compound 5145, tert-butyl ((2R,6S,7R,9S,13aS,14aR,16aS,Z)-14a-((cyclopropylsulfonyl)carbamoyl)-2-((6-isopropoxyisoquinolin-1-yl)oxy)-7,9-dimethyl-5,16-dioxo-1,2,3,5,6,7,8,9,10,11,13a,14,14a,15,16,16a-hexadecahydrocyclopropa[e]pyrrolo[1,2-a][1,4]diazacyclopentadecin-6-yl)carbamate] | 4.82 to 103 | < 5.46 |  |
| CC[C@@H]1C[C@H](C)CC/C=C\[C@@H]2C[C@@]2(C(=O)NS(=O)(=O)C2CC2)NC(=O)[C@@H]2C[C@@H](Oc3nccc4c5c(ccc34)OCCO5)CN2C(=O)[C@H]1NC(=O)OC(C)(C)C(C)(F)F [Compound 5336, 3,3-difluoro-2-methylbutan-2-yl((2R,6S,7R,9R,13aS,14aR,16aS,Z)-14a-((cyclopropylsulfonyl)carbamoyl)-2-((2,3-dihydro-[1,4]dioxino[2,3-f]isoquinolin-7-yl)oxy)-7-ethyl-9-methyl-5,16-dioxo-1,2,3,5,6,7,8,9,10,11,13a,14,14a,15,16,16a-hexadecahydrocyclopropa[e]pyrrolo[1,2-a][1,4]diazacyclopentadecin-6-yl)carbamate] | < 5.46 | < 5.46 |  |
| CC[C@@H]1C[C@H](C)CC/C=C\[C@@H]2C[C@@]2(C(=O)NS(=O)(=O)C2(C)CC2)NC(=O)[C@@H]2C[C@@H](Oc3nccc4c5c(ccc34)N(C)CCO5)CN2C(=O)[C@H]1NC(=O)OC(C)(C)C [Compound 5330, tert-butyl ((2R,6S,7R,9R,13aS,14aR,16aS,Z)-7-ethyl-9-methyl-2-((4-methyl-3,4-dihydro-2H-[1,4]oxazino[2,3-f]isoquinolin-7-yl)oxy)-14a-(((1-methylcyclopropyl)sulfonyl)carbamoyl)-5,16-dioxo-1,2,3,5,6,7,8,9,10,11,13a,14,14a,15,16,16a-hexadecahydrocyclopropa[e]pyrrolo[1,2-a][1,4]diazacyclopentadecin-6-yl)carbamate] | < 5.46 | < 5.46 |  |
| CC(C)Oc1ccc2c(O[C@@H]3C[C@H]4C(=O)N[C@]5(C(=O)NS(=O)(=O)C6(C)CC6)C[C@H]5/C=C\CC[C@@H](C)C[C@@H](C)[C@H](NC(=O)OC(C)(C)C)C(=O)N4C3)nccc2c1 [Compound 5157, tert-butyl ((2R,6S,7R,9R,13aS,14aR,16aS,Z)-2-((6-isopropoxyisoquinolin-1-yl)oxy)-7,9-dimethyl-14a-(((1-methylcyclopropyl)sulfonyl)carbamoyl)-5,16-dioxo-1,2,3,5,6,7,8,9,10,11,13a,14,14a,15,16,16a-hexadecahydrocyclopropa[e]pyrrolo[1,2-a][1,4]diazacyclopentadecin-6-yl)carbamate] | < 5.46 | < 5.46 |  |
| [2H]C([2H])([2H])C(OC(=O)N[C@@H]1C(=O)N2C[C@H](Oc3nnc(OCC)c4ccccc34)C[C@H]2C(=O)N[C@]2(C(=O)NS(=O)(=O)C3(C)CC3)C[C@H]2/C=C\CC[C@H](C)C[C@H]1C)(C([2H])([2H])[2H])C(F)(F)F [Compound 5032] | 4.82 to 103 | 4.82 to 103 |  |
| COCCOc1cnc(O[C@@H]2C[C@H]3C(=O)N[C@]4(C(=O)NS(=O)(=O)C5(C)CC5)C[C@H]4/C=C\CC[C@H](C)C[C@@H](C)[C@H](NC(=O)OC(C)(C)C(C)(F)F)C(=O)N3C2)c2ccc(OC)cc12 [Compound 1148, 3,3-difluoro-2-methylbutan-2-yl((2R,6S,7R,9S,13aS,14aR,16aS,Z)-2-((6-methoxy-4-(2-methoxyethoxyl)isoquinolin-1-yl)oxy)-7,9-dimethyl-14a-(((1-methylcyclopropyl)sulfonyl)carbamoyl)-5,16-dioxo-1,2,3,5,6,7,8,9,10,11,13a,14,14a,15,16,16a-hexadecahydrocyclopropa[e]pyrrolo[1,2-a][1,4]diazacyclopentadecin-6-yl)carbamate] |  |  | EC50 [1, 3]: < 5.46 nM; EC50 [2, 4]: < 5.46 nM |
| CC[C@@H]1C[C@H](C)CC/C=C\[C@@H]2C[C@@]2(C(=O)NS(=O)(=O)C2CC2)NC(=O)[C@@H]2C[C@@H](Oc3nccc4c5c(ccc34)N(C)CCO5)CN2C(=O)[C@H]1NC(=O)NC(C)(C)C [Compound 5316, (2R,6S,7R,9R,13aS,14aR,16aS,Z)-6-(3-(tert-butyl)ureido)-N-(cyclopropylsulfonyl)-7-ethyl-9-methyl-2-((4-methyl-3,4-dihydro-2H-[1,4]oxazino[2,3-f]isoquinolin-7-yl)oxy)-5,16-dioxo-1,2,3,5,6,7,8,9,10,11,13a,14,14a,15,16,16a-hexadecahydrocyclopropa[e]pyrrolo[1,2-a][1,4]diazacyclopentadecine-14a-carboxamide] | < 5.46 | < 5.46 |  |
| COc1cnc(O[C@@H]2C[C@H]3C(=O)N[C@]4(C(=O)NS(=O)(=O)C5(CO)CC5)C[C@H]4/C=C\CC[C@H](C)C[C@@H](C)[C@H](NC(=O)OC(C)(C)C)C(=O)N3C2)c2ccccc12 [Compound 4115, tert-butyl (2R,6S,7R,9S,13aS,14aR,16aS,Z)-14a-(1-(hydroxymethyl)cyclopropylsulfonylcarbamoyl)-2-(4-methoxyisoquinolin-1-yloxy)-7,9-dimethyl-5,16-dioxo-1,2,3,5,6,7,8,9,10,11,13a,14,14a,15,16,16a-hexadecahydrocyclopropa[e]pyrrolo[1,2-a][1,4]diazacyclopentadecin-6-ylcarbamate] | < 5.46 | < 5.46 |  |
| COc1cc2cc(F)ccc2c(O[C@@H]2C[C@H]3C(=O)N[C@]4(C(=O)NS(=O)(=O)C5(CF)CC5)C[C@H]4/C=C\CC[C@@H](C)C[C@@H](C)[C@H](NC(=O)OC(C)(C)C)C(=O)N3C2)n1 [Compound 3210, tert-butyl ((2R,6S,7R,9R,13aS,14aR,16aS,Z)-2-((6-fluoro-3-methoxyisoquinolin-1-yl)oxy)-14a-(((1-(fluoromethyl)cyclopropyl)sulfonyl)carbamoyl)-7,9-dimethyl-5,16-dioxo-1,2,3,5,6,7,8,9,10,11,13a,14,14a,15,16,16a-hexadecahydrocyclopropa[e]pyrrolo[1,2-a][1,4]diazacyclopentadecin-6-yl)carbamate] | 1.01 to 5 | 0.1 to 0.5 |  |
| COc1ccc2nc(C)c(O[C@@H]3C[C@H]4C(=O)N[C@]5(C(=O)NS(=O)(=O)C6(CF)CC6)C[C@H]5/C=C\CC[C@@H](C)C[C@@H](C)[C@H](NC(=O)OC(C)(C)C(F)(F)F)C(=O)N4C3)nc2c1 [Compound 4108] |  |  | EC50 [1, 5]: < 5.46 nM; EC50 [2, 6]: < 5.46 nM |
| COc1ccc2c(O[C@@H]3C[C@H]4C(=O)N[C@]5(C(=O)NS(=O)(=O)C6CC6)C[C@H]5/C=C\CC[C@@H](C)C[C@@H](C)[C@H](NC(=O)O[C@H](C)C(F)(F)F)C(=O)N4C3)nc(-c3ccc(OC(C)C)cn3)cc2c1 [Compound 5207, (R)-1,1,1-trifluoropropan-2-yl ((2R,6S,7R,9R,13aS,14aR,16aS,Z)-14a-((cyclopropylsulfonyl)carbamoyl)-2-((3-(5-isopropoxypyridin-2-yl)-6-methoxyisoquinolin-1-yl)oxy)-7,9-dimethyl-5,16-dioxo-1,2,3,5,6,7,8,9,10,11,13a,14,14a,15,16,16a-hexadecahydrocyclopropa[e]pyrrolo[1,2-a][1,4]diazacyclopentadecin-6-yl)carbamate] | < 5.46 | < 5.46 |  |
